Test in all cases: ITC
Details in all cases: 135 mM KCl, 15 mM NaCl, 10 mM MgCl2; 50 mM TrisCl pH 8.0, 37 °C

Experiment [1] concerns metE aptamer A89G/Δ153 (RNA, riboswitch) GGCAUUUUCUCUUAUCGAGAGUUGGGCGAGGGAUUGGCCUUUUGACCCCAACAGCAACCGGCCGUAAUACCAUUGUGAAAUGGGGCGCACUGCUUUUCGCGCCGAGACUGAUGUCUCAUAAGGCCGGUGCUAAUUCCAUCAGAUUGUGUCUGAGAGAUGAGAGAGGCAGUG
Experiment [2] concerns metE aptamer U157A (RNA, riboswitch) GGCAUUUUCUCUUAUCGAGAGUUGGGCGAGGGAUUGGCCUUUUGACCCCAACAGCAACCGACCGUAAUACCAUUGUGAAAUGGGGCGCACUGCUUUUCGCGCCGAGACUGAUGUCUCAUAAGGCACGGAGCUAAUUCCAUCAGAUUGUGUCUGAGAGAUGAGAGAGGCAGUG
Experiment [3] concerns B. subtilis metE wild type aptamer domain (RNA, riboswitch) GGCAUUUUCUCUUAUCGAGAGUUGGGCGAGGGAUUGGCCUUUUGACCCCAACAGCAACCGACCGUAAUACCAUUGUGAAAUGGGGCGCACUGCUUUUCGCGCCGAGACUGAUGUCUCAUAAGGCACGGUGCUAAUUCCAUCAGAUUGUGUCUGAGAGAUGAGAGAGGCAGUG
In experiment [4] the test system is metE aptamer A153C (RNA, riboswitch) GGCAUUUUCUCUUAUCGAGAGUUGGGCGAGGGAUUGGCCUUUUGACCCCAACAGCAACCGACCGUAAUACCAUUGUGAAAUGGGGCGCACUGCUUUUCGCGCCGAGACUGAUGUCUCAUAAGGCCCGGUGCUAAUUCCAUCAGAUUGUGUCUGAGAGAUGAGAGAGGCAGUG
Experiment [5] relates to metE aptamer A153G (RNA, riboswitch) GGCAUUUUCUCUUAUCGAGAGUUGGGCGAGGGAUUGGCCUUUUGACCCCAACAGCAACCGACCGUAAUACCAUUGUGAAAUGGGGCGCACUGCUUUUCGCGCCGAGACUGAUGUCUCAUAAGGCGCGGUGCUAAUUCCAUCAGAUUGUGUCUGAGAGAUGAGAGAGGCAGUG

Regarding `C[S+](CC[C@H](N)C(=O)O)C[C@H]1O[C@@H](n2cnc3c(N)ncnc32)[C@H](O)[C@@H]1O` (some centres unmarked), the “KD,obs” value in experiment [1] worked out at 16000 ± 1000 nM; in experiment [2] it was 24000 ± 7000 nM; in experiment [3], 79 ± 8 nM; in experiment [4], 150 ± 20 nM; in experiment [5], 150 ± 20 nM.
